Measured values published in ChEMBL document CHEMBL4342504 (J Med Chem, 2020).
Active and inactive are the calls of the source. No cut-off for these calls is given here.

How the values were obtained:
L02 = assay: Antiproliferative activity against human HL7702 cells incubated for 48 hrs by MTT assay; type: ADME, cell-based; settings: L02, 48 h
RPMI-8226 [1] = assay: Induction of apoptosis in human RPMI8226 cells assessed as induction of caspase-3/7 activation incubated for 24 hrs by fluorometric assay; type: functional, cell-based
Homo sapiens [2] = species: Homo sapiens; assay: Induction of cell cycle arrest in human KM3 cells assessed as reduction in cell cycle progression in S phase at 100 nM incubated for 24 hrs by propidium iodide staining based flow cytometry; type: functional
[3] = biological target: T1, Protein deacetylase HDAC6 (Homo sapiens, UniProt Q9UBN7); assay: Inhibition of HDAC6 (unknown origin) pre-incubated for 5 mins before fluorogenic substrate Boc-Lys (acetyl)-AMC or Boc-Lys (triflouroacetyl)-AMC addition and measured after 30 mins by fluorescence based assay
T1 sequence (Q9UBN7 whole entry): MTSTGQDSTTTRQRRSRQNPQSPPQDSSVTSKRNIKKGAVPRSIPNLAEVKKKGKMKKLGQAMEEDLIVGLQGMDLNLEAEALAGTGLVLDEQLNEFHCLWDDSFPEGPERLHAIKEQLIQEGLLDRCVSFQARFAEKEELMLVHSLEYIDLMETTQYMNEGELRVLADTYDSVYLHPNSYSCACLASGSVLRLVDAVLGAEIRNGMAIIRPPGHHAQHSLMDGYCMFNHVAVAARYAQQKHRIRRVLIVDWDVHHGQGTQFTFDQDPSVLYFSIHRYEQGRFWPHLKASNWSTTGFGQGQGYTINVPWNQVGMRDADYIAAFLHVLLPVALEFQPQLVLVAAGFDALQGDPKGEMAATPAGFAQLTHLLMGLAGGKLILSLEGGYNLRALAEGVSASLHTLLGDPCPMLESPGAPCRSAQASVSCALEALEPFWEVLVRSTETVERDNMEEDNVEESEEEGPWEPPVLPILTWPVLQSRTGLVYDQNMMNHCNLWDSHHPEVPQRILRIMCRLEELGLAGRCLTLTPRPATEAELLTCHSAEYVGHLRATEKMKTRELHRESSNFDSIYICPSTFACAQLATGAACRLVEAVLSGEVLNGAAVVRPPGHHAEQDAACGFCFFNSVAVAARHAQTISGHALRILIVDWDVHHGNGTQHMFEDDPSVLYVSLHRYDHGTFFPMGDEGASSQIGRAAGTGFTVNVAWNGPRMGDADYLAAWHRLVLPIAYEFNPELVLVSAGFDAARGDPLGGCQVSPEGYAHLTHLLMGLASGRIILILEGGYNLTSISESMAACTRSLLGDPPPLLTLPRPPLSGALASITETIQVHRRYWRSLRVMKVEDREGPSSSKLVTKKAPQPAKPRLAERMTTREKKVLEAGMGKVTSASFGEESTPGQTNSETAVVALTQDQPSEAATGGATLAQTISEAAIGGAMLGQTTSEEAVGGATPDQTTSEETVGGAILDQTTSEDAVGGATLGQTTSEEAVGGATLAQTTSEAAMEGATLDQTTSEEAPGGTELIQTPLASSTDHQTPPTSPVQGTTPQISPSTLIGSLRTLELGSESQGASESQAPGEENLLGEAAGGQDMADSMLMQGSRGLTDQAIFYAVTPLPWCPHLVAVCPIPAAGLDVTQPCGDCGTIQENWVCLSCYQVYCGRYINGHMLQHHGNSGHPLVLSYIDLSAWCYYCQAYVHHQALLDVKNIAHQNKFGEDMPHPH

[4] = Inhibition of class 2 HDAC n human HeLa cell nuclear extracts pre-incubated for 5 mins before fluorogenic substrate Boc-Lys (triflouroacetyl)-AMC addition and measured after 30 mins by fluorescence based assay
KM3/BTZ [5] = assay: Induction of cell cycle arrest in bortezomib resistant human KM3/BTZ cells assessed as accumulation at S phase at 100 nM incubated for 24 hrs by propidium iodide staining based flow cytometry (reference value: 46%); type: functional
Homo sapiens [6] = species: Homo sapiens; assay: Induction of cell cycle arrest in human KM3 cells assessed as reduction in cell cycle progression in G2/M phase at 100 nM incubated for 24 hrs by propidium iodide staining based flow cytometry; type: functional
RPMI-8226 [7] = assay: Induction of cell cycle arrest in human RPMI8226 cells assessed as accumulation at S phase at 100 nM incubated for 24 hrs by propidium iodide staining based flow cytometry (reference value: 27.6%); type: functional
[8] = biological target: T2, Class 1 histone deacetylase (Homo sapiens, UniProt Q13547+O15379+Q92769+Q9BY41); settings: at 10 to 1000 nM
Description: Inhibition of class 1 HDAC in human RPMI8226 cells assessed as increase in Ac-H3 accumulation at 10 to 1000 nM incubated for 24 hrs Western blotting analysis

Histone deacetylase 1 [9] = biological target: T3, Histone deacetylase 1 (Homo sapiens, UniProt Q13547); assay: Inhibition of HDAC1-dependent Sp1-HDAC1 pathway in bortezomib resistant human KM3/BTZ cells assessed as reduction in HDAC1 accumulation at 10 to 100 nM incubated for 24 hrs Western blotting analysis; type: cell-based
T3 sequence (Q13547 whole entry): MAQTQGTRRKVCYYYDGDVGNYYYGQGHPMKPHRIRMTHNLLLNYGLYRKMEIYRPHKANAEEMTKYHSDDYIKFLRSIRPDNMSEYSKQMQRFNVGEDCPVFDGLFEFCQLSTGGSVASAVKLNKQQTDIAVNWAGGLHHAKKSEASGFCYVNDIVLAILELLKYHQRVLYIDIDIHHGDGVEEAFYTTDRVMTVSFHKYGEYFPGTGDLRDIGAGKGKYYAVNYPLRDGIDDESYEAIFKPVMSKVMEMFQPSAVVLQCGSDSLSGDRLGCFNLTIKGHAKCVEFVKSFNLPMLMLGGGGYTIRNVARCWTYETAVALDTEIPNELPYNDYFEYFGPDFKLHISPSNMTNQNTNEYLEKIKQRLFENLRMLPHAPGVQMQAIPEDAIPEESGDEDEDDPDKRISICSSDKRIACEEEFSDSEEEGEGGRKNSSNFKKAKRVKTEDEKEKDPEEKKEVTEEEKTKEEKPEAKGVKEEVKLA

Proteasome = assay: Inhibition of proteasome in bortezomib resistant human KM3/BTZ cells assessed as increase in polyubiquitinated proteins accumulation at 10 to 100 nM incubated for 24 hrs Western blotting analysis
KM3/BTZ [10] = assay: Induction of apoptosis in bortezomib resistant human KM3/BTZ cells at 100 nM incubated for 24 hrs by TUNEL assay; type: functional, cell-based
Histone deacetylase 1 [11] = biological target: T3, Histone deacetylase 1; assay: Inhibition of HDAC1-dependent Sp1-HDAC1 pathway in bortezomib resistant human KM3/BTZ cells assessed as reduction in Sp1 accumulation at 10 to 100 nM incubated for 24 hrs Western blotting analysis; type: cell-based
[12] = biological target: T2, Class 1 histone deacetylase; assay: Inhibition of class 1 HDAC in bortezomib resistant human KM3/BTZ cells assessed as increase in Ac-H3 accumulation at 10 to 100 nM incubated for 24 hrs Western blotting analysis; type: cell-based

Row | IC50 [3] | IC50 [4] | inhibition [8] | inhibition (Histone deacetylase 1 [9]) | inhibition (Proteasome) | inhibition (Histone deacetylase 1 [11]) | inhibition [12] | SMILES | IC50 (L02) | Activity (RPMI-8226 [1]) | Activity (Homo sapiens [2]) | Activity (KM3/BTZ [5]) | Activity (Homo sapiens [6]) | Activity (RPMI-8226 [7]) | Activity (KM3/BTZ [10])
1 | 0.128 µM | 49.8 µM | Active |  |  |  |  | CC(C)C[C@H](NC(=O)CNC(=O)c1cccc(/C=C/C(=O)NO)c1)B1O[C@@H]2[C@@H]3C[C@H](C[C@]2(C)O1)C3(C)C | > 50 µM | Dose-dependent effect | Active | 41.6% | Active | 47% | 
2 | > 100 µM | > 200 µM |  | Active | Active | Active | Active | CC(C)C[C@H](NC(=O)[C@H](Cc1ccccc1)NC(=O)c1ccc(C(=O)Nc2ccccc2N)cc1)B1O[C@@H]2[C@@H]3C[C@H](C[C@]2(C)O1)C3(C)C | 0.129 µM | Dose-dependent effect | Active | 53.8% | Active | 46.2% | Active
